Data: ChEMBL document CHEMBL1201862, “PubChem BioAssay data set” (2004)
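Each compound was tested at five concentrations against cells in 96-well plates for 48 hours. Abbreviation: GI50, concentration required for 50% inhibition of growth.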 Calls of active or inactive are those of the source. No stated cut-off is given here; in the data, active = GI50 up to about 1.1 µM and inactive = higher.

Key:
Assay in all cases: DTP human tumour cell line panel, 48 h
[1] = test system: 786-0
[2] = test system: HCC 2998
[3] = test system: COLO 205
[4] = test system: HOP-18
[5] = test system: M14
[6] = test system: U-251
[7] = test system: HT-29
[8] = test system: SK-MEL-5
[9] = test system: UACC-257
[10] = test system: NCI-H23
[11] = test system: HOP-92
[12] = test system: EKVX
[13] = test system: SW-620
[14] = test system: HL-60
[15] = test system: OVCAR-3
[16] = test system: HOP-62
[17] = test system: UACC-62
[18] = test system: NCI-H460
[19] = test system: SNB-19
[20] = test system: KM-20L2
[21] = test system: RPMI-8226
[22] = test system: LOX IMVI
[23] = test system: SK-OV-3
[24] = test system: A498
[25] = test system: ACHN
[26] = test system: SNB-75
[27] = test system: HCT-15
[28] = test system: SF-295
[29] = test system: DMS-114
[30] = test system: SK-MEL-28
[31] = test system: CCRF-CEM
[32] = test system: DMS-273
[33] = test system: M19-MEL
[34] = test system: SF-539
[35] = test system: OVCAR-8
[36] = test system: RXF 631
[37] = test system: RXF 393
[38] = test system: SNB-78
[39] = test system: XF498
[40] = test system: DLD-1
[41] = test system: IGROV-1
[42] = test system: SN12C
[43] = test system: HCT-116
[44] = test system: CAKI-1
[45] = test system: TK-10
[46] = test system: K562
[47] = test system: LXFL 529
[48] = test system: OVCAR-4
[49] = test system: MOLT-4
[50] = test system: A549

## COCCOCCOCCOc1cccc2c1C(=O)c1cccc(OCCOCCOCCOC)c1C2=O
[1]
  GI50: > 100 µM (inactive)
[2]
  GI50: > 100 µM (inactive)
[3]
  GI50: > 100 µM (inactive)
[4]
  GI50: > 100 µM (inactive)
[5]
  GI50: > 100 µM (inactive)
[6]
  GI50: > 100 µM (inactive)
[7]
  GI50: > 100 µM (inactive)
[8]
  GI50: 81.5 µM (inactive)
[9]
  GI50: > 100 µM (inactive)
[10]
  GI50: > 100 µM (inactive)
[11]
  GI50: > 100 µM (inactive)
[12]
  GI50: > 100 µM (inactive)
[13]
  GI50: > 100 µM (inactive)
[14]
  GI50: > 100 µM (inactive)
[15]
  GI50: 92.5 µM (inactive)
[16]
  GI50: > 100 µM (inactive)
[17]
  GI50: > 100 µM (inactive)
[18]
  GI50: 70.6 µM (inactive)
[19]
  GI50: > 100 µM (inactive)
[20]
  GI50: > 100 µM (inactive)
[21]
  GI50: 65.3 µM (inactive)
[22]
  GI50: 70.1 µM (inactive)
[23]
  GI50: > 100 µM (inactive)
[24]
  GI50: > 100 µM (inactive)
[25]
  GI50: > 100 µM (inactive)
[26]
  GI50: > 100 µM (inactive)
[27]
  GI50: > 100 µM
[28]
  GI50: > 100 µM (inactive)
[29]
  GI50: > 100 µM (inactive)
[30]
  GI50: > 100 µM (inactive)
[31]
  GI50: 40.1 µM (inactive)
[32]
  GI50: > 100 µM (inactive)
[33]
  GI50: > 100 µM (inactive)
[34]
  GI50: > 100 µM (inactive)
[35]
  GI50: > 100 µM (inactive)
[36]
  GI50: > 100 µM (inactive)
[37]
  GI50: 92.9 µM (inactive)
[38]
  GI50: > 100 µM (inactive)
[39]
  GI50: > 100 µM (inactive)
[40]
  GI50: > 100 µM (inactive)
[41]
  GI50: > 100 µM (inactive)
[42]
  GI50: > 100 µM (inactive)
[43]
  GI50: > 100 µM (inactive)
[44]
  GI50: > 100 µM (inactive)
[45]
  GI50: > 100 µM (inactive)
[46]
  GI50: 37.8 µM (inactive)
[47]
  GI50: > 100 µM (inactive)
[48]
  GI50: > 100 µM (inactive)
[49]
  GI50: 71.8 µM (inactive)
[50]
  GI50: > 100 µM (inactive)
